Structures can show the parent of a compound that is named as a salt.
Assays:
ATM = ATM (Homo sapiens (Human), UniProt Q13315); assay: ATM in Cell Western Assay (pKAP1 in etoposide-treated MCF-7 cells); type: cell-based
Method in brief: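 Cells received compounds in a 10-dose, 3-fold series from a 1 μM final top concentration, then 100 μM etoposide, for 1 hr at 37° C. They were then fixed with paraformaldehyde and permeabilized with 0.1% Triton X-100. After immunostaining, plates were scanned on an infrared imager.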

DNA-PK = DNA-PK (Homo sapiens (Human), UniProt P78527); assay: DNA-PK Enzyme-Linked Immunosorbent Assay (phosphorylation of GST-p53 (1-101) peptide); type: biochemical; conditions: ELISA
Method in brief: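 ELISA with plate-bound GST-p53 (1-101) phosphorylated by DNA-PK (0.1 μg/mL final) with 20 μM ATP for 1 h at 25 °C. Compounds tested over 10 3-fold doses from 100 nM top final. Phospho-p53 Ser15 detected by antibody, HRP and TMB, absorbance at 450 nm.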

[1] = MCF-7 cells, etoposide 100 μM, 1 hr, pKAP1 readout
[2] = pKAP1 in etoposide-treated MCF-7 cells

ATM, sequence (Q13315 whole entry): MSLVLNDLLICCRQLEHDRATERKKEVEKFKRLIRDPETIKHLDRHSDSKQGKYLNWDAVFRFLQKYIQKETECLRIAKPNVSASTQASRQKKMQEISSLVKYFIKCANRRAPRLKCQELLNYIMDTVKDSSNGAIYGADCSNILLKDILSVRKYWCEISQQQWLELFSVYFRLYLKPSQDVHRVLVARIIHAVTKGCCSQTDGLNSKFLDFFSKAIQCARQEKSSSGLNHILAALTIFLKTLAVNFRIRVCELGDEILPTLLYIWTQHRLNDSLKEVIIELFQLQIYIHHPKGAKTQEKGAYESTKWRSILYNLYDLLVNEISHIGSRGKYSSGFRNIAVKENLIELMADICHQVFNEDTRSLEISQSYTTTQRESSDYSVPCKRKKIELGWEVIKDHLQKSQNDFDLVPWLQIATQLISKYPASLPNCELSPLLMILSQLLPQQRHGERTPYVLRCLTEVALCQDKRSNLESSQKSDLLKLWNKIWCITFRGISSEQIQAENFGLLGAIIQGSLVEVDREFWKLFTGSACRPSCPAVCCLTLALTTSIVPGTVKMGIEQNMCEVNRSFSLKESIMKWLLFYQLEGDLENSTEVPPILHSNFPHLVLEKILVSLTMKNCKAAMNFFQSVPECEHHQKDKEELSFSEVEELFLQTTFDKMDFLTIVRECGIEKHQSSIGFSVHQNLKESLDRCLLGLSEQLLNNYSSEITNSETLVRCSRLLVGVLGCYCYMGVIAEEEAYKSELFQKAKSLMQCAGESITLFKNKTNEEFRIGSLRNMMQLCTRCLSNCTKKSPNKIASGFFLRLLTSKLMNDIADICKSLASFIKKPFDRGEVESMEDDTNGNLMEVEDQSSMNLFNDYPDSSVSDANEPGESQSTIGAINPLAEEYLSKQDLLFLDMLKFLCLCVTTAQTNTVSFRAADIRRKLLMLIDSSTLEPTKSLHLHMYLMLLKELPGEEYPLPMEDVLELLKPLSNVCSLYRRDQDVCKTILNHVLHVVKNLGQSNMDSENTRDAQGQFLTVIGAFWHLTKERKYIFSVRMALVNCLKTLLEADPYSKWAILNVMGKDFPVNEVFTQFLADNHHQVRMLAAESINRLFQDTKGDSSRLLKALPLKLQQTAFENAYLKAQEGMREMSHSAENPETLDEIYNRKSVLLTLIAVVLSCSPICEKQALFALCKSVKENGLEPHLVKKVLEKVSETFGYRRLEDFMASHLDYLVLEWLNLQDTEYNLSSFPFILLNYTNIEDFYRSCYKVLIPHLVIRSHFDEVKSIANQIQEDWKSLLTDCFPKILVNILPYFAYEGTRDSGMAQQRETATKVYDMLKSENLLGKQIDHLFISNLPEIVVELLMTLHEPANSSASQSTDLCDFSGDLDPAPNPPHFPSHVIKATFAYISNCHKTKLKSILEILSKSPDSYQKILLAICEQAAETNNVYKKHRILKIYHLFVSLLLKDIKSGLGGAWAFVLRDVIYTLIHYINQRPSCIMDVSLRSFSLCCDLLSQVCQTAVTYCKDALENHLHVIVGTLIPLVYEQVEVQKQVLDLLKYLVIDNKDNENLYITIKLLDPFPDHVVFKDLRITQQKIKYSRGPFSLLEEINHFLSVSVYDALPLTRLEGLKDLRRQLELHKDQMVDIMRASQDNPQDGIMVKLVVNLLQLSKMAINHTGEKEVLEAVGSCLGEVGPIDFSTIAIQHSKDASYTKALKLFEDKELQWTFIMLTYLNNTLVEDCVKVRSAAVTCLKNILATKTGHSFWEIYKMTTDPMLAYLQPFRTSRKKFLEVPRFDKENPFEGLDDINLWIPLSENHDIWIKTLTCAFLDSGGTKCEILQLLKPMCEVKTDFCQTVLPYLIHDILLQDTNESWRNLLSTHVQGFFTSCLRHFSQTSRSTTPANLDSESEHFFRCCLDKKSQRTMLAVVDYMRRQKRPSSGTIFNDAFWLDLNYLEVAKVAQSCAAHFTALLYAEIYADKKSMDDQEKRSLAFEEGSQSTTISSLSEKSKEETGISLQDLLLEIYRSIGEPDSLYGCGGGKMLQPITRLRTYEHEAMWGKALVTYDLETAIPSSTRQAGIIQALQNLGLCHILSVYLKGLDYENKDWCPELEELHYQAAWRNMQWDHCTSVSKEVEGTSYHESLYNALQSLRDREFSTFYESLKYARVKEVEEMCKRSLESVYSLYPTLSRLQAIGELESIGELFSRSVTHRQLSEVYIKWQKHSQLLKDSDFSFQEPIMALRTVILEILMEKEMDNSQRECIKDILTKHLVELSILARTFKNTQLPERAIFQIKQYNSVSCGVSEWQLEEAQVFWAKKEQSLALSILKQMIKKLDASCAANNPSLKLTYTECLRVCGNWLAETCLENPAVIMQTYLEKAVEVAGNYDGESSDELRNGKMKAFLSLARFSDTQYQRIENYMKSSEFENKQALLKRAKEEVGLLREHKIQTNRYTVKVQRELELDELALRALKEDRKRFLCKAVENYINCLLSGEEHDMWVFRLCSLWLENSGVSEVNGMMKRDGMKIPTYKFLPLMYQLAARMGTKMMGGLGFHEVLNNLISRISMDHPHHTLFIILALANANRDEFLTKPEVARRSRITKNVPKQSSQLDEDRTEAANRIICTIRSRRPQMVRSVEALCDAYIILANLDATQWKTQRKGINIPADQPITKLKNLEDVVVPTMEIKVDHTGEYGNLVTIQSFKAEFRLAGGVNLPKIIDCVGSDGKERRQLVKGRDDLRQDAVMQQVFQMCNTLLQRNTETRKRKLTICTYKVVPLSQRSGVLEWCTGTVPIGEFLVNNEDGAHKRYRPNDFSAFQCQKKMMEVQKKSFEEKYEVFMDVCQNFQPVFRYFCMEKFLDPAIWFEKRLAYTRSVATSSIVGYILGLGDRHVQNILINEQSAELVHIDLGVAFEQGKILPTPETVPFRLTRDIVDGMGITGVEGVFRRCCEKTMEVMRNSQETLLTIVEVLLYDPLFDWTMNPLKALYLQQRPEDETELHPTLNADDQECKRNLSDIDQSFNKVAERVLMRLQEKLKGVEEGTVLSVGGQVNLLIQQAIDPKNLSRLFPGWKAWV

IC50 (ATM; [1])	IC50 (DNA-PK; ATP 20 μM)	IC50 (ATM; [2])	IC50 (DNA-PK; 20 μM ATP)	Structure (SMILES)
0.5 to 1 nM	< 0.5 nM			CN1C(=O)C2(CCC2)c2c1cnc1ccc(-c3cnc(N4CCC(N5CCCCC5)CC4)c(NS(C)(=O)=O)c3)cc21 [Example 228, N-(2-([1,4′-Bipiperidin]-1′-yl)-5-(3′-methyl-2′-oxo-2′,3′-dihydrospiro[cyclobutane-1,1′-pyrrolo[2,3-c]quinolin]-8′-yl)pyridin-3-yl)methanesulfonamide]
< 0.5 nM	< 0.5 nM			CN1C(=O)C2(CC2)c2c1cnc1ccc(-c3cnc(N4CCC(N(C)C)CC4)c(NS(=O)(=O)C4CC4)c3)cc21 [Example 113, N-(2-(4-(Dimethylamino)piperidin-1-yl)-5-(3′-methyl-2′-oxo-2′,3′-dihydrospiro[cyclopropane-1,1′-pyrrolo[2,3-c]quinolin]-8′-yl)pyridin-3-yl)cyclopropanesulfonamide]
1 to 100 nM	< 0.5 nM			CN(C)CCCOc1ncc(-c2ccc3ncc4c(c3c2)C2(CC2)C(=O)N4C)cc1NS(=O)(=O)N(C)C [Example 109]
		1 to 100 nM	1 to 100 nM	CC(C)NCCOc1ncc(-c2cc3c(cc2F)ncc2c3[C@]3(C[C@H](c4ccccc4F)C3)C(=O)N2C)cc1NS(C)(=O)=O [Example 426, cis-N-(5-(7′-Fluoro-3-(2-fluorophenyl)-3′-methyl-2′-oxo-2′,3′-dihydrospiro[cyclobutane-1,1′-pyrrolo[2,3-c]quinolin]-8′-yl)-2-(2-(isopropylamino)ethoxy)pyridin-3-yl)methanesulfonamide]
1 to 100 nM	0.5 to 1 nM			CN1C(=O)C2(CCC2)c2c1cnc1ccc(-c3cnc(OCCCN4CCOCC4)c(NS(=O)(=O)N(C)C)c3)cc21 [Example 304, 8′-{5-[(Dimethylsulfamoyl)amino]-6-[3-(morpholin-4-yl)propoxy]pyridin-3-yl)-3′-methyl-2′,3′-dihydrospiro[cyclobutane-1,1′-pyrrolo[2,3-c]quinoline]-2′-one]
1 to 100 nM	< 0.5 nM			CN(C)CCCOc1ncc(-c2ccc3ncc4c(c3c2)C2(CCC2)C(=O)N4C)cc1NS(=O)(=O)CCN [Example 223, 2-Amino-N-(2-(3-(dimethylamino)propoxy)-5-(3′-methyl-2′-oxo-2′,3′-dihydrospiro[cyclobutane-1,1′-pyrrolo[2,3-c]quinolin]-8′-yl)pyridin-3-yl)ethane-1-sulfonamide]
1 to 100 nM	1 to 100 nM			CN(C)CCCOc1ncc(-c2ccc3ncc4c(c3c2)C2(CCC2)C(=O)N4C)cc1NS(=O)(=O)N1CCCC1 [Example 244, N-(2-(3-(Dimethylamino)propoxy)-5-(3′-methyl-2′-oxo-2′,3′-dihydrospiro [cyclobutane-1,1′-pyrrolo[2,3-c]quinolin]-8′-yl)pyridin-3-yl)pyrrolidine-1-sulfonamide]
0.5 to 1 nM	0.5 to 1 nM			CN(C)CCCOc1ncc(-c2ccc3ncc4c(c3c2)C2(CCC2)C(=O)N4C)cc1NS(=O)(=O)c1ccc(F)c(C#N)c1 [Example 159, 3-Cyano-N-(2-(3-(dimethylamino)propoxy)-5-(3′-methyl-2′-oxo-2′,3′-dihydrospiro [cyclobutane-1,1′-pyrrolo[2,3-c]quinolin]-8′-yl)pyridin-3-yl)-4-fluorobenzene-sulfonamide hydrochloride]
		> 100 nM	1 to 100 nM	CC(C)NCCOc1ncc(-c2cc3c(cc2F)ncc2c3[C@]3(C[C@@H](c4ccccn4)C3)C(=O)N2C)cc1NS(C)(=O)=O [Example 435, trans-N-(5-(7′-Fluoro-3′-methyl-2′-oxo-3-(pyridin-2-yl)-2′,3′-dihydrospiro[cyclobutane-1,1′-pyrrolo[2,3-c]quinolin]-8′-yl)-2-(2-(isopropylamino)ethoxy)pyridin-3-yl)methanesulfonamide]
1 to 100 nM	1 to 100 nM			CC1CCC12C(=O)N(C)c1cnc3ccc(-c4cnc(N5CC(N(C)C)C5)c(NS(C)(=O)=O)c4)cc3c12 (stereo not shown) [Example 325, N-(5-(2,3′-Dimethyl-2′-oxo-2′,3′-dihydrospiro[cyclobutane-1,1′-pyrrolo[2,3-c]quinolin]-8′-yl)-2-(3-(dimethylamino)azetidin-1-yl)pyridin-3-yl)methanesulfonamideformate]
0.5 to 1 nM	< 0.5 nM			CN(C)CCCOc1ncc(-c2ccc3ncc4c(c3c2)C2(CC2)C(=O)N4C)cc1NS(=O)(=O)c1ccsc1 [Example 92, N-(2-(3-(Dimethylamino)propoxy)-5-(3′-methyl-2′-oxo-2′,3′-dihydrospiro [cyclopropane-1,1′-pyrrolo[2,3-c]quinolin]-8′-yl)pyridin-3-yl)thiophene-3-sulfonamide]
1 to 100 nM	< 0.5 nM			CN(C)CCCOc1ncc(-c2ccc3ncc4c(c3c2)C2(CC2)C(=O)N4C)cc1NS(=O)(=O)c1ccc(OC(F)(F)F)cc1 [Example 121, N-(2-(3-(Dimethylamino)propoxy)-5-(3′-methyl-2′-oxo-2′,3′-dihydrospiro[cyclopropane-1,1′-pyrrolo[2,3-c]quinolin]-8′-yl)pyridin-3-yl)-4-(trifluoromethoxy)benzenesulfonamide]
		1 to 100 nM	1 to 100 nM	CN(C)CCCOc1ncc(-c2ccc3ncc4c(c3c2)[C@]2(C[C@@H](O)C2)C(=O)N4C)cc1NS(C)(=O)=O [Example 383, trans-N-(2-(3-(Dimethylamino)propoxy)-5-(3-hydroxy-3′-methyl-2′-oxo-2′,3′-dihydrospiro[cyclobutane-1,1′-pyrrolo[2,3-c]quinolin]-8′-yl)pyridin-3-yl)methanesulfonamide]
		0.5 to 1 nM	0.5 to 1 nM	CN1C(=O)C2(CCC2)c2c1cnc1ccc(-c3cnc(N4CCC(N5CCOCC5)CC4)c(NS(C)(=O)=O)c3)cc21 [Example 357, N-(5-(3′-Methyl-2′-oxo-2′,3′-dihydrospiro[cyclobutane-1,1′-pyrrolo[2,3-c]quinolin]-8′-yl)-2-(4-morpholinopiperidin-l-yl)Pyridin-3-yl)methanesulfonamide hydrochloride]
		1 to 100 nM	1 to 100 nM	CC(C)NCCOc1ncc(-c2cc3c(cc2F)ncc2c3[C@]3(C[C@H](c4ccccn4)C3)C(=O)N2C)cc1NS(C)(=O)=O [Example 434, cis-N-(5-(7′-Fluoro-3′-methyl-2′-oxo-3-(pyridin-2-yl)-2′,3′-dihydrospiro [cyclobutane-1,1′-pyrrolo[2,3-c]quinolin]-8′-yl)-2-(2-(isopropylamino)ethoxy)pyridin-3-yl)methanesulfonamide]
1 to 100 nM	< 0.5 nM			CNCCCOc1ncc(-c2ccc3ncc4c(c3c2)C2(CCC2)C(=O)N4C)cc1NS(C)(=O)=O [Example 240, N-(5-(3′-Methyl-2′-oxo-2′,3′-dihydrospiro[cyclobutane-1,1′-pyrrolo[2,3-c]quinolin]-8′-yl)-2-(3-(methylamino)propoxy)pyridin-3-yl) methanesulfonamide formate]
1 to 100 nM	0.5 to 1 nM			COC1CCCN(CCCOc2ncc(-c3ccc4ncc5c(c4c3)C3(CCC3)C(=O)N5C)cc2NS(C)(=O)=O)C1 (stereo not shown) [Example 280, N-(2-(3-(3-Methoxypiperidin-1-yl)propoxy)-5-(3′-methyl-2′-oxo-2′,3′-dihydrospiro[cyclobutane-1,1′-pyrrolo[2,3-c]quinolin]-8′-yl)pyridin-3-yl)methanesulfonamide]
0.5 to 1 nM	1 to 100 nM			CN(C)CCCOc1ccc(-c2ccc3ncc4c(c3c2)C2(CC2)C(=O)N4C)cc1NS(=O)(=O)c1ccccc1 [Example 63, N-(2-(3-(Dimethylamino)propoxy)-5-(3′-methyl-2′-oxo-2′,3′-dihydrospiro[cyclopropane-1,1′-pyrrolo[2,3-c]quinolin]-8′-yl)phenyl)benzenesulfonamide]
1 to 100 nM	1 to 100 nM			CN1C(=O)C2(CCC2)c2c1cnc1ccc(-c3cnc(OCCCN4CCOCC4)c(NS(=O)(=O)c4ccccc4)c3)cc21 [Example 131, N-(5-(3′-Methyl-2′-oxo-2′,3′-dihydrospiro[cyclobulane-1,1′-pyrrolo[2,3-c]quinolin]-8′-yl)-2-(3-morpholinopropoxy)pyridin-3-yl)benzenesulfonamide hydrochloride]
		1 to 100 nM	0.5 to 1 nM	CCS(=O)(=O)Nc1cc(-c2cc3c4c(cnc3cc2F)N(C)C(=O)C42CN(C(C)C)C2)cnc1OCCNC(C)C [Example 483]
1 to 100 nM	1 to 100 nM			CN(C)CCCOc1ncc(-c2ccc3ncc4c(c3c2)C2(COC2)C(=O)N4C)cc1NS(=O)(=O)c1ccccc1 [Example 32, N-(2-(3-(Dimethylamino)propoxy)-5-(3′-methyl-2′-oxo-2′,3′-dihydrospiro[oxetane-3,1′-pyrrolo[2,3-c]quinolin]-8′-yl)pyridin-3-yl)benzenesulfonamide]
1 to 100 nM	< 0.5 nM			CN(C)CCCOc1ncc(-c2ccc3ncc4c(c3c2)C2(CCC2)C(=O)N4C)cc1NS(=O)(=O)C(F)(F)F [Example 239, N-(2-(3-(Dimethylamino)propoxy)-5-(3′-methyl-2′-oxo-2′,3′-dihydrospiro [cyclobutane-1,1′-pyrrolo[2,3-c]quinolin]-8′-yl)pyridin-3-yl)-1,1,1-trifluoromethane-sulfonamide]
1 to 100 nM	1 to 100 nM			CN(C)CCCOc1ncc(-c2cc3c4c(cnc3cc2F)N(C)C(=O)C42CC2)cc1NS(=O)(=O)c1ccc(Cl)cc1 [Example 129, 4-Chloro-N-(2-(3-(dimethylamino)propoxy)-5-(7′-fluoro-3′-methyl-2′-oxo-2′,3′-dihydrospiro[cyclopropane-1,1′-pyrrolo[2,3-c]quinolin]-8′-yl)pyridin-3-yl) benzenesulfonamide hydrochloride]

Reference: patent US12187742B2 (XRAD Therapeutics, Inc., priority 2018, dated 2025)
